Laboratory results reported in the supplement of paper PMC4862054.
Several values for one entry are separate records, joined by “and”; a condition that tells them apart may be missing. Identical values can stand only once.

Legend:
Test in all cases: normalised viability (% of control), CellTiter-Blue; higher = more viable cells (about 100 = DMSO control)
Details in all cases: incubation time: 72 h
[1] = system: MDA-MB-468
Protocol: (§1)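 DSRT, CellTiter-Blue viability, 72 h incubation. Signal is normalised to DMSO and benzethonium chloride controls. Value is the normalised response at dose 3.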

[2] = system: Hs578T
Protocol: as §1

[3] = system: BT-474
Protocol: as §1

[4] = system: DU-4475
Protocol: as §1

[5] = system: HCC1937
Protocol: as §1

[6] = system: MDA-MB-436
Protocol: as §1

[7] = system: CAL-120
Protocol: as §1

[8] = system: MFM-223
Protocol: as §1

[9] = system: CAL-85-1
Protocol: as §1

[10] = system: MDA-MB-453
In short: (§2)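 Normalised viability is given for a single listed concentration of the series. In 384-well plates, breast cancer cell lines were incubated 72 h with compound, then read with CellTiter-Blue (2 h, 37 °C) at 560/590 nm. Per-plate scaling set vehicle to 100 and a positive kill control to 0, with Z'-factor quality control.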

[11] = system: MDA-MB-468; remark: listed apart in the source
In short: as §2

[12] = system: MDA-MB-231
In short: as §2

[13] = system: Hs578T; remark: listed apart in the source
In short: as §2

[14] = system: HDQ-P1
In short: as §2

[15] = system: HCC1599
In short: as §2

[16] = system: BT-549
In short: as §2

[17] = system: BT-474; remark: listed apart in the source
In short: as §2

[18] = system: CAL-51
In short: as §2

[19] = system: DU-4475; remark: listed apart in the source
In short: as §2

[20] = system: HCC1143
In short: as §2

[21] = system: HCC1937; remark: listed apart in the source
In short: as §2

[22] = system: MDA-MB-436; remark: listed apart in the source
In short: as §2

[23] = system: SK-BR-3
In short: as §2

[24] = system: CAL-120; remark: listed apart in the source
In short: as §2

[25] = system: MFM-223; remark: listed apart in the source
In short: as §2

[26] = system: CAL-148
In short: as §2

[27] = system: CAL-85-1; remark: listed apart in the source
In short: as §2

C[C@]12O[C@H](C[C@]1(O)CO)n1c3ccccc3c3c4c(c5c6ccccc6n2c5c31)CNC4=O [Lestaurtinib]
Details | normalised viability [%]
[1], 10 nM | 92.9
[2], 10 nM | 83
[3], 10 nM | 127
[4], 1 nM | 109
[5], 10 nM | 79.5
[6], 10 nM | 103
[7], 10 nM | 103
[8], 10 nM | 107
[9], 1 nM | 99.7
[10], 0.3 nM | 126
[10], 3 nM | 98.4
[10], 10 nM | 104
[11], 1 nM | 107
[11], 100 nM | 106
[11], 1000 nM | 51
[12], 1 nM | 112
[12], 100 nM | 104
[12], 1000 nM | 62.6
[13], 1 nM | 110
[13], 100 nM | 122
[13], 1000 nM | 63.3
[14], 0.3 nM | 119
[14], 3 nM | 112
[14], 10 nM | 126
[15], 1 nM | 102
[15], 100 nM | 94.6
[15], 1000 nM | 64.8
[16], 1 nM | 88.3
[16], 100 nM | 101
[16], 1000 nM | 41.8
[17], 1 nM | 120
[17], 100 nM | 110
[17], 1000 nM | 69
[18], 0.3 nM | 113
[18], 3 nM | 108
[18], 10 nM | 106
[19], 0.3 nM | 93.2
[19], 3 nM | 104
[19], 10 nM | 100
[20], 1 nM | 107
[20], 100 nM | 89.8
[20], 1000 nM | 61.6
[21], 1 nM | 89
[21], 100 nM | 77.4
[21], 1000 nM | 31.3
[22], 1 nM | 102
[22], 100 nM | 93.4
[22], 1000 nM | 55.5
[23], 1 nM | 108
[23], 100 nM | 102
[23], 1000 nM | 37.2
[24], 1 nM | 108
[24], 100 nM | 60.7
[24], 1000 nM | 47.5
[25], 1 nM | 97.6
[25], 100 nM | 80.9
[25], 1000 nM | 42.8
[26], 0.3 nM | 96.8
[26], 3 nM | 98.6
[26], 10 nM | 98.3
[27], 0.3 nM | 106
[27], 3 nM | 97.8
[27], 10 nM | 102

C[C@]12C=CC(=O)C=C1CC[C@@H]1[C@@H]2[C@@H](O)C[C@@]2(C)[C@H]1CC[C@]2(O)C(=O)CO [Prednisolone]
Details | normalised viability [%]
[1], 100 nM | 108
[2], 100 nM | 81.3
[3], 100 nM | 102
[4], 10 nM | 101
[5], 100 nM | 94
[6], 100 nM | 96.6
[7], 100 nM | 79.9
[8], 100 nM | 97
[9], 10 nM | 109
[10], 3 nM | 107
[10], 30 nM | 106
[10], 100 nM | 95.5
[11], 10 nM | 102
[11], 1000 nM | 115
[11], 10000 nM | 101
[12], 10 nM | 113
[12], 1000 nM | 129
[12], 10000 nM | 117
[13], 10 nM | 111
[13], 1000 nM | 107
[13], 10000 nM | 107
[14], 3 nM | 112
[14], 30 nM | 124
[14], 100 nM | 108
[15], 10 nM | 111
[15], 1000 nM | 92.2
[15], 10000 nM | 84.9
[16], 10 nM | 111
[16], 1000 nM | 92.2
[16], 10000 nM | 105
[17], 10 nM | 125
[17], 1000 nM | 98.8
[17], 10000 nM | 100
[18], 3 nM | 102
[18], 30 nM | 98.3
[18], 100 nM | 98.4
[19], 3 nM | 107
[19], 30 nM | 116
[19], 100 nM | 98.1
[20], 10 nM | 98
[20], 1000 nM | 87.9
[20], 10000 nM | 96.3
[21], 10 nM | 91.7
[21], 1000 nM | 108
[21], 10000 nM | 99.1
[22], 10 nM | 82.4
[22], 1000 nM | 73.5
[22], 10000 nM | 108
[23], 10 nM | 114
[23], 1000 nM | 101
[23], 10000 nM | 89.3
[24], 10 nM | 87.5
[24], 1000 nM | 73.7
[24], 10000 nM | 86.8
[25], 10 nM | 95.7
[25], 1000 nM | 100
[25], 10000 nM | 96.9
[26], 3 nM | 93.8
[26], 30 nM | 118
[26], 100 nM | 107
[27], 3 nM | 101
[27], 30 nM | 105
[27], 100 nM | 119

Cc1nc(Nc2ncc(C(=O)Nc3c(C)cccc3Cl)s2)cc(N2CCN(CCO)CC2)n1 [Dasatinib]
Details | normalised viability
[2], 10 nM | 77.6% and 80.5%
[3], 10 nM | 117% and 108%
[4], 1 nM | 105% and 111%
[5], 10 nM | 87.7% and 94.3%
[6], 10 nM | 102% and 88.7%
[7], 10 nM | 93.2% and 80.5%
[8], 10 nM | 91.8% and 88%
[9], 1 nM | 100% and 99.7%
[10], 0.3 nM | 121% and 115%
[10], 3 nM | 96.6% and 99.2%
[10], 10 nM | 97.7% and 104%
[11], 1 nM | 114% and 109%
[11], 100 nM | 105% and 100%
[11], 1000 nM | 94.6% and 90.4%
[12], 1 nM | 87.5% and 81.5%
[12], 100 nM | 53% and 40.2%
[12], 1000 nM | 40.5% and 34%
[13], 1 nM | 108% and 102%
[13], 100 nM | 55.5% and 45.7%
[13], 1000 nM | 27% and 24.8%
[14], 0.3 nM | 106% and 111%
[14], 3 nM | 83.8% and 84.8%
[15], 1 nM | 109% and 107%
[15], 100 nM | 103% and 114%
[15], 1000 nM | 101% and 100%
[16], 1 nM | 102% and 95.4%
[16], 100 nM | 62.5% and 51.1%
[16], 1000 nM | 38.9% and 35.7%
[17], 1 nM | 126% and 102%
[17], 100 nM | 113% and 96.2%
[17], 1000 nM | 97.9% and 95.4%
[18], 0.3 nM | 106% and 112%
[18], 3 nM | 92.3% and 93.9%
[18], 10 nM | 79.3% and 84.4%
[19], 0.3 nM | 107% and 83.4%
[19], 3 nM | 101% and 97.1%
[19], 10 nM | 101% and 95.7%
[20], 1 nM | 100% and 78.6%
[20], 100 nM | 65.4% and 55%
[20], 1000 nM | 48.9% and 37.6%
[21], 1 nM | 95.7% and 92.3%
[21], 100 nM | 53.9% and 78%
[22], 1 nM | 91.2% and 105%
[22], 100 nM | 64.8% and 56.8%
[22], 1000 nM | 40.4% and 30.4%
[23], 1 nM | 109% and 92.9%
[23], 100 nM | 112% and 98.6%
[24], 1 nM | 93.5% and 85.7%
[24], 100 nM | 46% and 38.3%
[24], 1000 nM | 26.6% and 22.4%
[25], 1 nM | 96.2% and 96.8%
[25], 100 nM | 84.3% and 90.4%
[25], 1000 nM | 70.1% and 72%
[26], 0.3 nM | 97.9% and 80.8%
[26], 3 nM | 110% and 85.8%
[26], 10 nM | 98.1% and 88.5%
[27], 0.3 nM | 97.8% and 95.5%
[27], 3 nM | 84.2% and 87.7%
[27], 10 nM | 87.9% and 92.9%

COc1nc(N)nc2c1ncn2[C@@H]1O[C@H](CO)[C@@H](O)[C@@H]1O [Nelarabine]
Details | normalised viability
[1], 100 nM | 104% and 97.9%
[2], 100 nM | 75.9% and 85.7%
[3], 100 nM | 87.4% and 96.1%
[5], 100 nM | 93.1% and 85.6%
[6], 100 nM | 90.6% and 83.6%
[7], 100 nM | 112% and 101%
[8], 100 nM | 103% and 101%
[9], 10 nM | 94.4% and 97.7%
[10], 3 nM | 93.2% and 104%
[10], 30 nM | 99.5% and 116%
[10], 100 nM | 93.8% and 101%
[11], 10 nM | 97.3% and 99%
[11], 1000 nM | 93.2% and 93.8%
[11], 10000 nM | 94.3% and 93.1%
[12], 10 nM | 88.9% and 90.1%
[12], 1000 nM | 87.8% and 95%
[12], 10000 nM | 92.7% and 89.8%
[13], 10 nM | 103% and 92.6%
[13], 1000 nM | 103% and 95.2%
[13], 10000 nM | 89.4% and 85.8%
[14], 3 nM | 77.3% and 89.3%
[14], 30 nM | 91.1% and 89.2%
[15], 10 nM | 115% and 117%
[15], 1000 nM | 108% and 123%
[15], 10000 nM | 136% and 114%
[16], 10 nM | 95.2% and 85.3%
[16], 1000 nM | 98% and 91%
[16], 10000 nM | 86.4% and 80.4%
[17], 10 nM | 96.7% and 102%
[17], 1000 nM | 92.1% and 93.3%
[17], 10000 nM | 92.8% and 94.6%
[18], 3 nM | 106% and 105%
[18], 30 nM | 98.7% and 104%
[18], 100 nM | 97.4% and 106%
[19], 3 nM | 117% and 116%
[19], 30 nM | 97% and 101%
[19], 100 nM | 106% and 126%
[20], 1000 nM | 103% and 88.2%
[20], 10000 nM | 105% and 89.6%
[21], 1000 nM | 109% and 93.9%
[21], 10000 nM | 92.3% and 80.8%
[22], 10000 nM | 91.2% and 94.8%
[23], 10 nM | 93.9% and 93.6%
[23], 10000 nM | 102% and 82.1%
[24], 10 nM | 109% and 93.6%
[24], 1000 nM | 96.1% and 105%
[24], 10000 nM | 95.9% and 107%
[25], 10 nM | 108% and 111%
[25], 1000 nM | 94.9% and 98.1%
[25], 10000 nM | 103% and 104%
[26], 3 nM | 92% and 97%
[26], 30 nM | 94.7% and 93.5%
[26], 100 nM | 95.4% and 91.8%
[27], 3 nM | 99.3% and 102%
[27], 30 nM | 98.7% and 100%
[27], 100 nM | 101% and 102%
